The source made the active and inactive calls. The calls are words filed in the database; no cut-off is given here.
Experiments:
Mus musculus [1] = experiment: In vivo antimalarial activity against Plasmodium yoelii in mice (Mus musculus) at 96 mg/kg/day intramuscularly on day 4 expressed as percent suppression; type: functional; settings: route intramuscular
Mus musculus [2] = experiment: Mean survival time against Plasmodium yoelii in mice (Mus musculus) which died during 28-day observation period at 96 mg/kg/day intramuscularly; type: functional; settings: route intramuscular
Mus musculus [3] = experiment: Mean survival time against Plasmodium yoelii in mice (Mus musculus) which died during 28-day observation period at 96 mg/kg/day orally; type: functional; settings: route oral
[4] = Number of survivals against Plasmodium yoelii in mice (Mus musculus) (out of 5) at 96 mg/kg/day intramuscularly on day 28; type: organism-based; parameters: route intramuscular; settings: in vivo, im
[5] = Number of survivals against Plasmodium yoelii in mice (Mus musculus) (out of 5) at 96 mg/kg/day orally on day 28; type: organism-based; parameters: route oral; settings: in vivo, po
Mus musculus [6] = experiment: In vivo antimalarial activity against Plasmodium yoelii in mice (Mus musculus) at 96 mg/kg/day orally on day 4 expressed as percent suppression; type: functional; settings: route oral
Mus musculus [7] = experiment: Percent suppression against Plasmodium yoelii in mice (Mus musculus) at 96 mg/kg/day intramuscularly on day 4; type: functional; settings: route intramuscular
Mus musculus [8] = experiment: In vivo antimalarial activity against Plasmodium yoelii in mice (Mus musculus) at 48 mg/kg/day orally on day 4 expressed as percent suppression; type: functional; settings: route oral
[9] = Number of survivals against Plasmodium yoelii in mice (Mus musculus) (out of 5) at 48 mg/kg/day orally on day 28; type: organism-based; parameters: route oral; settings: in vivo, po
[10] = Number of survivals against Plasmodium yoelii in mice (Mus musculus) (out of 5) at 24 mg/kg/day orally on day 28; type: organism-based; parameters: route oral; settings: in vivo, po
Mus musculus [11] = experiment: Percent suppression against Plasmodium yoelii in mice (Mus musculus) at 24 mg/kg/day orally on day 4; type: functional; settings: route oral
Mus musculus [12] = experiment: Mean survival time against Plasmodium yoelii in mice (Mus musculus) which died during 28-day observation period at 48 mg/kg/day orally; type: functional; settings: route oral
Mus musculus [13] = experiment: Mean survival time against Plasmodium yoelii in mice (Mus musculus) which died during 28-day observation period at 24 mg/kg/day orally; type: functional; settings: route oral
Mus musculus [14] = experiment: In vivo antimalarial activity against Plasmodium yoelii in mice (Mus musculus) at 24 mg/kg/day orally on day 4 expressed as percent suppression; type: functional; settings: route oral
Mus musculus [15] = experiment: In vivo antimalarial activity against Plasmodium yoelii in mice (Mus musculus) at 96 mg/kg/day intramuscularly on day 4 expressed as percent suppression; No suppression; type: functional, organism-based

Compound	Suppression (Mus musculus [1])	MST (Mus musculus [2])	MST (Mus musculus [3])	No. of survivals [4]	No. of survivals [5]	Suppression (Mus musculus [6])	Suppression (Mus musculus [7])	Suppression (Mus musculus [8])	No. of survivals [9]	No. of survivals [10]	Suppression (Mus musculus [11])	MST (Mus musculus [12])	MST (Mus musculus [13])	Suppression (Mus musculus [14])	Suppression (Mus musculus [15])
C=C(c1ccccc1)C1COC2(CCC(=O)CC2)OO1 (stereo not given)	99%	11.6 days	7.2 days	0	0	7%	–	–	–	–	–	–	–	–	–
C=C(c1ccccc1)C1COC2(CCC(Nc3ccc(OC)cc3)CC2)OO1 (stereo not given)	63%	10.8 days	12.4 days	0	0	93%	–	–	–	–	–	–	–	–	–
C=C(c1ccc(-c2ccccc2)cc1)C1COC2(CCC(Nc3cc(Cl)cc(Cl)c3)CC2)OO1 (stereo not given)	46%	7 days	10.2 days	0	0	65%	–	–	–	–	–	–	–	–	–
C=C(c1ccccc1)C1COC2(CCC(Nc3cc(Cl)cc(Cl)c3)CC2)OO1 (stereo not given)	62%	12.4 days	16.5 days	0	2	100%	–	–	–	–	–	–	–	–	–
C=C(c1ccc(-c2ccccc2)cc1)C1COC2(CCC(Nc3ccc(OC)cc3)CC2)OO1 (stereo not given)	57%	8.4 days	11.1 days	0	0	94%	–	–	–	–	–	–	–	–	–
C=C(c1ccc(-c2ccccc2)cc1)C1COC2(CCC(=O)CC2)OO1 (stereo not given)	100%	17.7 days	10.2 days	1	0	92%	–	–	–	–	–	–	–	–	–
C=C(c1ccc(-c2ccccc2)cc1)C1COC2(CCC(Nc3ccc(NC(C)=O)cc3)CC2)OO1 (stereo not given)	90%	11.6 days	8.4 days	0	0	49%	–	–	–	–	–	–	–	–	–
C=C(c1ccccc1)C1COC2(CCC(Nc3ccccc3)CC2)OO1 (stereo not given)	60%	13.4 days	12.2 days	0	0	95%	–	–	–	–	–	–	–	–	–
C=C(c1ccc(-c2ccccc2)cc1)C1COC2(CCC(Nc3ccccc3)CC2)OO1 (stereo not given)	–	10.7 days	>28 days	0	5	100%	72%	100%	3	0	98%	14.5 days	13.4 days	–	–
CCO[C@H]1O[C@@H]2O[C@@]3(C)CC[C@H]4[C@H](C)CC[C@@H]([C@H]1C)[C@@]24OO3 [ARTEMOTIL]	–	–	–	–	–	–	–	100%	5	1	–	>28 days	17.75 days	100%	–
C=C(c1ccc(-c2ccccc2)cc1)C1COC2(CCC(Nc3cccc4ccccc34)CC2)OO1 (stereo not given)	–	6.6 days	14.8 days	0	0	100%	–	–	–	–	–	–	–	–	inactive
C=C(c1ccccc1)C1COC2(CCC(Nc3ccc(NC(C)=O)cc3)CC2)OO1 (stereo not given)	98%	9 days	9.8 days	0	0	77%	–	–	–	–	–	–	–	–	–
CCN(CC)CCCC(C)Nc1ccnc2cc(Cl)ccc12 (stereo not given) [CHLOROQUINE]	–	–	–	–	–	–	–	100%	2	0	–	17.6 days	14.8 days	100%	–
C=C(c1ccccc1)C1COC2(CCC(Nc3cccc4ccccc34)CC2)OO1 (stereo not given)	44%	9.2 days	19.5 days	0	0	100%	–	–	–	–	–	–	–	–	–

Reference: ChEMBL document CHEMBL1146839, “Orally active amino functionalized antimalarial 1,2,4-trioxanes” (Bioorg Med Chem Lett, 2004)
